Results as given in ChEMBL document CHEMBL6071176, “Development of Phloroglucinol-Linked Tris-Quaternary Ammonium Salt Antimicrobial Peptide Mimics with Low Cytotoxicity and Broad-Spectrum Antibacterial Activity” (J Med Chem, 2024).
Active and inactive are the calls of the source. No cut-off for these calls is given here.

How the values were obtained:
Staphylococcus aureus [1] = assay: Anti-biofilim activity against Staphylococcus aureus biofilm assessed bacterial survival rate at 4 ug/ml measured after 24 hrs incubation; format: functional
Staphylococcus aureus [2] = assay: Down-regulation of N-terminal TPP binding domain in Staphylococcus aureus at 0.25 ug/ml and incubated for 4 hrs by Transcriptome analysis; format: functional, organism-based; conditions: dose 0.25 µg/ml
[3] = Cytotoxicity against human Gastric mucosal cells measured after 24 hrs by CCK-8 assay; format: toxicity, cell-based, Gastric mucosal cell
[4] = Toxicity in female SPF Kunming mouse assessed as change in CREA level at 20 mg/kg/day, ip measured after 24 hrs; format: organism-based; conditions: in vivo
Staphylococcus aureus [5] = assay: In vivo antibacterial activity against methicillin-resistant Staphylococcus aureus subcutaneously infected in SPF female Kunming mouse model assessed as improvement in inflammatory cell infiltration in skin at 5 to 10 mg/kg/day injected into blister after 6 hrs of infection measured after 6 consecutive treatments by H and E staining based assay; format: functional, organism-based; conditions: dose 5-10 mg/kg/day, route […]
[6] = Toxicity in female SPF Kunming mouse assessed as pathological changes in kidney at 200 mg/kg/day, sc measured after 24 hrs by hematoxylin and eosin staining based assay; format: organism-based; conditions: in vivo
Cell membrane = assay: Induction of Cytoplasmic membrane depolarization in Staphylococcus aureus assessed as increase in fluorescence intensity measured at 6 times of MIC measured after 4 hrs by DiSC3(5) dye-based fluorescence assay; format: subcellular
Staphylococcus aureus [7] = assay: Anti-biofilim activity against Staphylococcus aureus biofilm assessed bacterial survival rate at 32 ug/ml measured after 24 hrs incubation; format: functional
Staphylococcus aureus [8] = assay: Bactericidal activity against Staphylococcus aureus assessed as bacterial killing in presence of Mueller-Hinton broth; format: functional, organism-based
Escherichia coli [9] = assay: Bactericidal activity against early exponential phase Escherichia coli assessed as bacterial killing at 3 ug/ml incubated for 6 hrs by time-kill assay; format: functional, organism-based; conditions: dose 3.0 µg/ml
Escherichia coli [10] = assay: Bactericidal activity against late exponential phase Escherichia coli assessed as bacterial elimination at 8 ug/ml incubated for 6 to 8 hrs by time-kill assay; format: functional; conditions: dose 8 µg/ml; time 6-8 hrs
[11] = Hemolytic activity in sheep red blood cells measured after 1 hr incubation; format: toxicity, cell-based, Ovis aries, Erythrocyte
Staphylococcus aureus [12] = assay: In vivo antibacterial activity against methicillin-resistant Staphylococcus aureus subcutaneously infected in SPF female Kunming mouse model assessed as bacteria count in dissected mouse at 10 mg/kg/day injected into blister after 6 hrs of infection measured after 6 consecutive treatments; format: functional, organism-based
Staphylococcus aureus [13] = assay: Down-regulation of thiamine pyrophosphate enzyme in Staphylococcus aureus at 0.25 ug/ml and incubated for 4 hrs by Transcriptome analysis; format: functional, organism-based; conditions: dose 0.25 µg/ml
Staphylococcus aureus [14] = assay: Induction of morphological changes in Staphylococcus aureus assessed as wrinkled/cracked surface at 4 ug/ml incubated for 4 hrs by Scanning electron microscopy (SEM); format: functional, organism-based; conditions: dose 4.0 µg/ml
Staphylococcus aureus [15] = assay: Anti-microbial activity against Staphylococcus aureus assessed as bacterial growth inhibition in presence of LPS (exogenous bacterial cell membrane component) measured after 18 hrs; format: functional, organism-based
[16] = Hemolytic activity in Red blood cells (unknown origin) assessed as hemolytic rate at 1280 ug/ml relative to control; format: toxicity, cell-based, Erythrocyte; conditions: at 1280 µg/mL, read-out: Activity
Staphylococcus aureus [17] = assay: Bactericidal activity against early exponential phase Staphylococcus aureus assessed as bacterial killing at 3 ug/ml incubated for 12 hrs by time-kill assay; format: functional, organism-based; conditions: dose 3.0 µg/ml
Staphylococcus aureus [18] = assay: Antibacterial activity against NDM-1 gene-resistant Staphylococcus aureus assessed as inhibition of bacterial growth incubated for 18 hrs by CLSI guidelines based assay; format: functional
[19] = Toxicity in female SPF Kunming mouse assessed as change in WBC count at 20 mg/kg/day, ip measured after 24 hrs; format: organism-based; conditions: in vivo
[20] = Toxicity in female SPF Kunming mouse assessed as pathological changes in spleen at 200 mg/kg/day, sc measured after 24 hrs by hematoxylin and eosin staining based assay; format: organism-based; conditions: in vivo
[21] = Toxicity in female SPF Kunming mouse assessed as pathological changes in heart at 200 mg/kg/day, sc measured after 24 hrs by hematoxylin and eosin staining based assay; format: organism-based; conditions: in vivo

Compound: CCCCCCCC[N+](C)(C)CCCCOc1cc(OCCCC[N+](C)(C)CCCCCCCC)cc(OCCCC[N+](C)(C)CCCCCCCC)c1.[Br-].[Br-].[Br-]
- survival at 4 µg/mL (Staphylococcus aureus [1]): 2.3%
- Activity (Staphylococcus aureus [2]): Active
- CC50 at 24 h [3]: < 153 µg/mL
- Activity [4]: Non-Toxic
- Activity (Staphylococcus aureus [5]): Active
- Activity [6]: Non-Toxic
- Activity (Cell membrane): Active
- survival at 32 µg/mL (Staphylococcus aureus [7]): 0.002%
- Activity (Staphylococcus aureus [8]): Active
- Activity (Escherichia coli [9]): Active
- Activity (Escherichia coli [10]): 100%
- HC50 at 1 h [11]: > 1280 µg/mL
- Activity (Staphylococcus aureus [12]): Active
- Activity (Staphylococcus aureus [13]): Active
- Activity (Staphylococcus aureus [14]): Active
- Activity (Staphylococcus aureus [15]): inactive
- hemolysis at 1280 ug/ml [16]: < 5%
- Activity (Staphylococcus aureus [17]): Active
- MIC90 (Staphylococcus aureus [18]): 2 µg/mL
- Activity [19]: Non-Toxic
- Activity [20]: Non-Toxic
- Activity [21]: Non-Toxic
